Data published in patent US6949522B2, “β-2′- or 3′-halonucleosides” (Pharmasset, Inc., priority 2001, dated 2005).
Where two headings read alike, the source gives them in different places.

Columns and labels:
[1] = test system: 3TC-resistant (xxBRU 184V) HIV-1; assay: HIV-1 RT-assay on supernatant of acutely infected human PBM cells, strain xxBRU 184V; assay type: cell-based; details: for EC90: read-out: RT-Assay 184V EC90
Procedure: (§1) Human PBM cells (1×10^6 cells/T25 flask) were PHA stimulated for 2 or 3 days, and infected with either a wild type (LAI and xxBRU) or a 3TC-resistant (xxBRU 184V) HIV-1 strain at 100 TCID50, as previously described (27). The culture was kept for 5 days in presence of test compounds at serial 1-log dilutions. Subsequently, human PBM cells were removed from the culture supernatant by centrifugation (10 minutes, 400×g, 4° C.). This clarified supernatant was tested either in the RT-assay, or in the Q-RT-PCR assay.
(§2) Virus particles present in a 1 mL aliquot of culture supernatant were concentrated by high-speed centrifugation (2 hours, 20,000×g, 4° C.). The supernatant was then removed and the virus pellet was dispensed into a 100 μL virus solubilization buffer (VSB: 0.5% Triton X-100; 0.8 M NaCl, 0.5 mM phenylmethylsulfonyl, 20% glycerol, 50 mM Tris.HCl pH 7.8). A 10 μL aliquot of RT-VSB was mixed with 75 μL RT cocktail (60 mM Tris.HCl pH 7.8, 12 mM MgCl2, 6 mM DTT, 6 μg/mL poly (rA)n-oligo (dT)10-12, 1.2 mM dATP, and 80 μCi/mL 3H-TTP) and incubated for 2 hours at 37° C. Subsequently 100 μL of 10% TCA was added, and the total amount of incorporated 3H-TTP was determined.
(§3) HIV-1 present in culture supernatant fluids was quantified by two different methodologies: i) the Q-RT-PCR with read-out in log copies/mL; and ii) the endogenous viral RT assay on cell supernatant with read-out in log counts per minute/mL (CPM/mL). Upon addition of antiviral compounds to the culture media, a dose-related decrease in virus production was observed. Although the two methodologies measured different parameters (viral RNA versus active RT enzyme), results were not markedly different from each other. The HIV-1 Q-RT-PCR results were compared with a previously established cell-based antiviral drug evaluation assay (endogenous HIV-1 RT polymerization activity in cell supematant)(27).

HIV-1 LAI (wild type) [2] = assay: HIV-1 RT-assay on supernatant of acutely infected human PBM cells, strain LAI; assay type: cell-based; details: 5 days, RT activity reduced by 90%
Procedure: as §1, §2, §3

BVDV (strain NADL) = assay: BVDV Q-RT-PCR assay in MDBK cells; assay type: cell-based, bovine viral diarrhea virus; details: read-out: BVDV assay Q-PCR EC90
Procedure: Madin-Darby Bovine Kidney (MDBK) cells were maintained in DMEM/F12 supplemented with 10% heat-inactivated horse serum at 37° C. in a humidified, 5% CO2 atmosphere. Cells were seeded in 96-well plates at 5×10^3 cells/wcll and incubated for 1 hour. BVDV (strain NADL) was used to infect the cells in monolayer at MOI 0.02. After 45 minutes of infection, the viral inoculum was removed and the cells were washed twice. Media or media containing test compound was added to these cells, followed by 24 hour incubation. Cell supernatant fluids were collected, clarified by centrifugation (2 minutes, 3,000 g, room temperature) and viral RNA was prepared (QIAamp Viral RNA mini Kit, Qiagen). Viral RNA was detected in real-time RT-PCR.

HIV-1 LAI (wild type) [3] = assay: HIV-1 Q-RT-PCR assay in human PBM cells, strain LAI; assay type: cell-based; details: 5 days, viral RNA reduced by 90%
Procedure: as §1
(§4) Viral RNA present in the culture supernatant was prepared using commercially available columns (QIAamp Viral RNA mini Kit, Qiagen, Valencia, Calif.). Viral RNA was detected in real-time by monitoring increases in fluorescence signal that resulted from degradation of a quenched fluorescent probe molecule following the hybridization of the probe to the arnplified viral DNA (TaqMan 7700 chemistry, Applied Biosystems, Foster City, Calif.). The TaqMan probe and primers were designed using the Primer Express software (Applied Biosystems); they cover highly conserved sequences complementary to an 81 base pair long fragment from the HIV-1 RT gene between codon 230 and 257 of the group MHIV-1 genome; • probe 5′-6FAM-[…]-TAMRA-3′ (Sequence 1) • sense primer: 5′-[…]-3′ (Sequence 2); and • antisense primer 5′-[…]-3′ (Sequence 3).
(§5) A total of 5 μL RNA was RT-amplified using reagents and conditions as described by the manufacturer (Applied Biosystems). […] Copy numbers were calibrated using the Roche Amplicor HIV-1 Monitor test™ (Roche Diagnostics, Branchburg, N.J.) on a 1-log dilution series of a clinical HIV-1 genotype B isolate (attenuated in vitro to obtain a high viral load). The 10-6 diluted sample became positive at threshold cycle (Ct=PCR cycle threshold where a sample becomes detectable)=35.52, which corresponded to 1,410 copies/mL in the Roche monitor HIV-1 version II assay. When validated over a dynamic range of 3 logs of virus, there was excellent correlation (r2˜1) between the two methodologies. […] Therefore, the currently designed primer and probe set allowed reliable quantification of both clinical samples and HIV-1 in vitro preparations.
as §3

[4] = test system: 3TC-resistant (xxBRU 184V) HIV-1; assay: HIV-1 Q-RT-PCR assay in human PBM cells, strain xxBRU 184V; assay type: cell-based; details: for EC90: read-out: Q-RT-PCR HIV-1 assay 184V EC90
Procedure: as §1, §4, §5, §3

[5] = Human immunodeficiency virus 1, PBMC, 120 h
[6] = Bovine viral diarrhea virus isolates and strains, MDBK cells, 24 hour incubation, viral RNA in supernatant
[7] = human PBM cells, 5 days, RT activity reduced by 90%
[8] = MDBK cells, 24 hour incubation, viral RNA in supernatant
[9] = human PBM cells, 5 days, viral RNA reduced by 90%

Row | Compound | EC90 [1, 5] [µM] | EC90 (HIV-1 LAI (wild type) [2]; [5]) [nM] | EC90 (BVDV (strain NADL); [6]) [µM] | EC90 (HIV-1 LAI (wild type) [3]; [5]) [µM] | EC90 [4, 5] [µM] | RT-Assay FI, fold increase (EC90 HIV-1184V/EC90 HIV-1xxBRU) [1] | Q-RT-PCR HIV-1 assay FI, fold increase (EC90 HIV-1184V/EC90 HIV-1xxBRU) [4] | EC90 (BVDV (strain NADL); Bovine viral diarrhea virus isolates and strains, MDBK, 24 h) [µM] | EC90 [1, 7] [µM] | EC90 (HIV-1 LAI (wild type) [2]) [nM] | EC90 (BVDV (strain NADL); [8]) [µM] | EC90 (HIV-1 LAI (wild type) [3]) [µM] | EC90 [4, 9] [µM]
1 | Cc1cn([C@H]2C[C@H](N=[N+]=[N-])[C@@H](CO)O2)c(=O)[nH]c1=O [AZT, 3′-azido-3′-deoxythymidine, reference compound] | 0.002 | 20 | > 200 | 0.03 | 0.01 | – | – | – | – | – | – | – | –
2 | Nc1ccn([C@@H]2CS[C@H](CO)O2)c(=O)n1 [Compound 3TC, (−)-β-2′,3′-dideoxy-3′-thiacytidine, reference compound] | 535 | 130 | > 200 | 0.37 | > 100 | 6,688 | >1,562 | – | – | – | – | – | –
3 | Nc1ccn([C@@H]2C=C(F)[C@H](CO)O2)c(=O)n1 [Compound 10, 1-(2,3-Dideoxy-3-fluoro-β-L-glycero-pent-2-eno-furanosyl)cytosine] | 572 | 25300 | – | 50.6 | > 100 | 16.1 | – | > 200 | – | – | – | – | –
4 | Nc1ccn([C@@H]2C=C(F)[C@H](CO)O2)c(=O)n1 [Compound 23, 1-(2,3-Didcoxy-3-fluoro-β-L-glycero-pent-2-eno-furanosyl)cytosine] | – | – | – | – | – | 586 | 115 | – | 82 | 670 | > 200 | 0.92 | 68.4
5 | Nc1ccn([C@@H]2S[C@H](CO)C=C2F)c(=O)n1 [Compound D-17, (−)-1-[(1S,4R)-2,3-dideoxy-2,3-didehydro-2-fluoro4-thio-β-D-ribofuranosyl]-cytosine] | – | – | – | – | – | 25.0 | 12.8 | – | 125 | 11900 | > 200 | 24.6 | 65.8
6 | Nc1nc(=O)n([C@@H]2S[C@H](CO)C=C2F)cc1F [Compound D-18, (−)-1-[(1S,4R)-2,3-dideoxy-2,3-didehydro-2-fluoro-4-thio-β-D-ribofuranosyl]-5-fluorocytosine] | – | – | – | – | – | – | – | – | > 100 | > 100000 | > 200 | > 100 | > 100
7 | Nc1ccn([C@H]2S[C@@H](CO)C=C2F)c(=O)n1 [Compound L-17, (+)-1-[(1S,4R)-2,3-dideoxy-2,3-didehydro-2-fluoro-4-thio-β-L-ribofuranosyl]-cytosine] | – | – | – | – | – | 1,121 | >50 | – | 1570 | 3300 | > 200 | 4.1 | > 100
8 | Nc1nc(=O)n([C@H]2S[C@@H](CO)C=C2F)cc1F [Compound L-18, (+)-1-[(1S,4R)-2,3-dideoxy-2,3-didehydro-2-fluoro-4-thio-β-L-ribofuranosyl]-5-fluoro-cytosine] | – | – | – | – | – | >100 | >100 | – | > 100 | 2600 | > 200 | 4.3 | > 100
